According to patent publication US20240174690A1, “ANNULATED 2-AMINO-3-CYANO THIOPHENES AND DERIVATIVES FOR THE TREATMENT OF CANCER” (BOEHRINGER INGELHEIM INTERNATIONAL GMBH, priority 2021, published 2024):

Tests used:
KRAS (G12D)::SOS1 = KRAS (G12D)::SOS1 (Homo sapiens (Human), UniProt P01116, G12D); assay: KRAS::SOS1 AlphaScreen binding assay, KRAS G12D
Procedure, shortened: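 AlphaScreen measurement of compound disruption of biotinylated, GDP-loaded KRAS 1-169 (10 nM; G12C 7.5 nM) binding to GST-SOS1 564-1049 (5 nM with G12D/G12C, 10 nM otherwise), with 10 μM GDP in PBS/0.1% BSA/0.05% Tween 20. Timing was 30 min compound preincubation, then 60 min with beads at room temperature; top concentration 100 μM, 4-parameter IC50.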

NCI-H2122 cells = assay: NCI-H2122 CTG proliferation assay (120 h) (NSCLC, G12C); assay type: cell-based; conditions: Homo sapiens
Procedure, shortened: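 Proliferation was read by CellTiter-Glo luminescence after 120 h of compound exposure, starting one day after seeding 200 NCI-H2122 (G12C) cells per well in RPMI/10% FCS. RLU relative to DMSO wells gave percent viability, and four-parameter nonlinear regression gave IC50.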

[1] = tested on: KRAS G12D-dependent Ba/F3 cells; assay: Ba/F3 proliferation assay, KRAS G12D; assay type: cell-based; conditions: Mus musculus, BaF3, 72 h, AlamarBlue
Procedure, shortened: (§1)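 Proliferation of mutant-KRAS-driven Ba/F3 cells cultured without IL-3 is followed with AlamarBlue after compound addition. Curves are fitted from duplicate wells.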

[2] = tested on: KRAS G12V-dependent Ba/F3 cells; assay: Ba/F3 proliferation assay, KRAS G12V; assay type: cell-based; conditions: Mus musculus, BaF3, 72 h, AlamarBlue;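 further: proliferation IC50 in KRAS G12V-dependent Ba/F3 cells read by AlamarBlue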
Procedure, shortened: as §1

KRAS (G12D)::SOS1, sequence (P01116 other isoform, or with tags, fused parts or gaps G12D): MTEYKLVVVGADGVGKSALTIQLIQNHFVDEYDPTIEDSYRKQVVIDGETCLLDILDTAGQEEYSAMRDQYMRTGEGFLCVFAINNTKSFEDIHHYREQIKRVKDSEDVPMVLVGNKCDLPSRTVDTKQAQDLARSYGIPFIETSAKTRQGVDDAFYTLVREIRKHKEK

IC50 (KRAS (G12D)::SOS1) [nM] | IC50 (NCI-H2122 cells) [nM] | IC50 [1] [nM] | IC50 [2] [nM] | SMILES
1 | 10600 | 58 | 642 | C[C@H](Oc1cc(N2CCNCC2)nc(-c2noc3c2CCC[C@@]32CCCc3sc(N)c(C#N)c32)n1)[C@@H]1CCCN1C [II-45]
1 | 2020 | 40 | 164 | C[C@H](Oc1cc(N2CC[C@@H](N(C)C)C2)nc(-c2noc3c2CCC[C@@]32CCCc3sc(N)c(C#N)c32)n1)[C@@H]1CCCN1C [II-47]
1 | 3100 | 70 | 581 | C[C@H](Oc1cc(N2CCC(N(C)C)CC2)nc(-c2noc3c2CCC[C@@]32CCCc3sc(N)c(C#N)c32)n1)[C@@H]1CCCN1C [II-48]
